The source of these data is paper PMC4585971, “Functional Analyses of the Toxoplasma gondii DNA Gyrase Holoenzyme: A Janus Topoisomerase with Supercoiling and Decatenation Abilities” (Scientific Reports, 2015).

In general, Km refers to the substrate concentration at which the rate is half of its maximum.

The target of one data set is T1, EcGyrB (Escherichia coli, UniProt P0AES6).
T1 construct: gene gyrB
Briefly: native PAGE, nucleotide-induced dimerisation ([…] AMPPNP). In kind it is binding.

Data set [1] has as its system Nc1ncnc2c1ncn2[C@@H]1O[C@H](COP(=O)(O)OP(=O)(O)OP(=O)(O)O)[C@@H](O)[C@H]1O. Briefly: purified protein. The conditions noted are these: Mg2+.

With `Nc1ncnc2c1ncn2[C@@H]1O[C@H](CO[P@](=O)(O)O[P@](=O)(O)NP(=O)(O)O)[C@@H](O)[C@H]1O` [AMPPNP], the “native PAGE, nucleotide-induced dimerisation (4 mM AMPPNP)” value at EcGyrB is given as “This dimerisation pattern (monomer in the absence of nucleotide, dimer in the presence) is the same as for EcGyrB”. Take EcGyrB (Escherichia coli K-12): the Km in data set [1] turned out to be 540 ± 50 µM.
